The source of these data is patent US6893650B1, “N2-phenylamidine derivatives” (Bayer Cropscience GmbH, priority 1999, dated 2005).

Molecules are shown by their SMILES.

The assay has as its system Leptosphaeria nodorum. As to the kind of experiment: glume blotch, spray or stem-base drench of test plants, infection visually estimated. Also: key: 1 is little or no control; 2 is moderate control; 3 is good to total control. In kind it is in vivo. The note with it: concentration of 500 ppm (w/v) or less.
Take `Cc1cc(Oc2nc(-c3ccccc3)ns2)c(C)cc1N=CN1CCCCC1` [Compound 246]: the “score of 1 to 3 (control, degree of infection visually estimated)” value (“score” below) is reported as 2.
Then `Cc1cc(Oc2ccc(C(C)(C)C)cc2)c(C)cc1N=CN(C)C` [Compound 61], with 2; and `Cc1cc(Oc2nc(-c3ccccc3)ns2)c(C)cc1N=CN(C)C` [Compound 48, N,N-Dimethyl-N′-[4-(3-phenyl-1,2,4-thiadiazol-5-yloxy)-2,5-xylyl]formamidine], with 2; and `COc1cccc(Oc2cc(C)c(N=CN(C)C)cc2C)c1` [Compound 56], with 2.
Then `Cc1cc(OCc2ccc(OCC3CCCCC3)cc2)c(C)cc1N=CN(C)C` [Compound 290], with 2; and `Cc1cc(OC(=O)c2sc3ccccc3c2Cl)c(C)cc1N=CN(C)C` [Compound 160], with 2; and `CCNC=Nc1cc(C)c(Oc2cccc(C(F)(F)F)c2)cc1C` [Compound 59], with 2.
Then `Cc1cc(Oc2cccc(C(F)(F)F)c2)c(C)cc1N=CN1CCCC1` [Compound 41], with 2; and `Cc1cc(Oc2cccc(C3CCCC3)c2)c(C)cc1N=CN(C)C` [Compound 378], with 2.
Consider `Cc1cc(Oc2cccc(Cl)c2)c(C)cc1N=CN(C)C` [Compound 7], for which the “score” value was 2.
Then `COc1ccccc1Oc1cc(C)c(N=CN(C)C)cc1C` [Compound 27], with 2; and `COC(C)(C)c1cccc(Oc2cc(C)c(N=CN(C)C)cc2C)c1` [Compound 392], with 2.
Next, `CCN(C)C=Nc1cc(C)c(Oc2cccc(Oc3ccccc3)c2)cc1C` [Compound 325]: 2; `CCN(C)C=Nc1cc(C)c(Oc2cccc(C(C)(C)C)c2)cc1C` [Compound 100]: 2; `CCN(C)C=Nc1cc(C)c(Oc2ccc(Cl)c(C(F)(F)F)c2)cc1C` [Compound 364]: 2.
Then `Cc1cc(Oc2ccc(OC(C)C)cc2)c(C)cc1N=CN(C)C` [Compound 303], with 2; and `Cc1cc(Oc2cccc(C(C)(C)C)c2)c(C)cc1N=CN(C)C` [Compound 8], with 2.
Take `Cc1cc(C)nc(Oc2cccc(Oc3cc(C)c(N=CN(C)C)cc3C)c2)n1` [Compound 369]: the “score” value was 2.
For `CCN(C)C=Nc1cc(C)c(Oc2cccc(Cl)c2)cc1C` [Compound 310], the “score” value was 2.
Then `CCN(C)C=Nc1cc(C)c(Oc2cccc(OC)c2)cc1C` [Compound 312], with 2; and `Cc1cc(Oc2nc(-c3ccccc3)ns2)c(C(C)C)cc1N=CN(C)C` [Compound 208], with 2; and `Cc1cc(Oc2cccc(C(F)(F)F)c2)c(C)cc1N=CN(C)C` [Compound 1], with 2.
In the case of `CCC(C)(C)c1ccc(Oc2cc(C)c(N=CN(C)C)cc2C)cc1` [Compound 170], the “score” value is reported as 2.
For the compound `CCN(C=Nc1cc(C)c(Oc2cccc(C(F)(F)F)c2)cc1C)CC` [Compound 37, N,N-Diethyl-N′-[4-(3-trifluoromethylphenoxy)-2,5-xylyl]formamidine], the “score” value is 2.
Next, `CCN(C)C=Nc1cc(C)c(Oc2ccc(C(C)(C)C)cc2)cc1C` [Compound 326]: 2.
Then `CCN(C)C=Nc1cc(C)c(Oc2ccc(C(C)C)cc2)cc1C` [Compound 311], with 2; and `C#CCOc1ccc(Oc2cc(C)c(N=CN(C)C)cc2C)cc1` [Compound 235], with 2.
As to `Cc1cc(Oc2nc(-c3ccc(Cl)c(Cl)c3)cs2)c(C)cc1N=CN(C)C` [Compound 351], the “score” value is 2.
Then `C=CCN(C)C=Nc1cc(C)c(Oc2cccc(C(C)(C)C)c2)cc1C` [Compound 284], with 2.
Next, `Cc1cc(C(C#N)c2cccc(C(F)(F)F)c2)c(C)cc1N=CN(C)C` (stereo not drawn) [Compound 214]: 2; `COc1cc(N=CN(C)C)c(Br)cc1Oc1cccc(C(F)(F)F)c1` [Compound 15]: 2; `CCC(C)c1ccc(Oc2cc(C)c(N=CN(C)C)cc2C)cc1` (stereo not drawn) [Compound 130]: 2.
Next, `Cc1cc(Oc2nc3cc(C(F)(F)F)ccc3s2)c(C)cc1N=CN(C)C` [Compound 194]: 2; `CCN(C)C=Nc1cc(C)c(Oc2cccc(C(F)(F)F)c2)cc1C` [Compound 45, N-Ethyl-N-methyl-N′-[4-(3-trifluoromethylphenoxy)-2,5-xylyl]formamidine]: 2.
Regarding `Cc1cc(Oc2cccc(C(F)(F)F)c2)c(C)cc1N=CN1CCCCC1` [Compound 43], the “score” value is on record as 2.
Next, `CC(=Nc1cc(C)c(SCc2cccc(C(F)(F)F)c2)cc1C)N(C)C` [Compound 5]: 2.
Next, `Cc1cc(Oc2cccc(C(F)(F)F)c2)c(C)cc1N=CN1CCOCC1` [Compound 35]: 2; `Cc1cc(Oc2cccc(C(C)(C)C)c2)c(C)cc1N=CN(C)C(C)C` [Compound 283]: 2; `Cc1cc(Oc2cccc(C#N)c2)c(C)cc1N=CN(C)C` [Compound 29]: 2.
For the compound `Cc1cc(Oc2nc(Br)ns2)c(C)cc1N=CN(C)C` [Compound 72], the “score” value is listed as 2.
Next, `CCc1ccc(Oc2cc(C)c(N=CN(C)C)cc2C)cc1` [Compound 181]: 2; `CC(=Nc1cc(C)c(Oc2cccc(C(F)(F)F)c2)cc1C)N(C)C` [Compound 2]: 2.
